Like-named read-outs stand apart in the source and are kept apart here.
How the values were obtained:
IL-6 = conditions: in vitro; cited from earlier work
[1] = in vivo; cited from earlier work
cyclooxygenase = conditions: cited from earlier work
[2] = tested on: subject with major depression; experiment: Case reports: add-on anti-inflammatory in subjects with major depression, rated on 17 item Hamilton rating scale for depression (HAMD); type: in vivo, human; conditions: person
Experimental: A subject with a 4-5 month history of depression was used in this example. The subject's complaints included low mood, anhedonia, anxiety, poor concentration, significant initial insomnia, mild anorexia and weight loss of approximately 2 kilos. Symptoms were precipitated by problems both in the work and home environment. A diagnosis of major depression was made.
Over three weeks this was increased to 300 mg daily.
Rofecoxib 50 mg daily was added to the venlafaxine.
A subject with a long history of recurring depression was used in this example. The current episode was present for 3 months when initially seen. They were low in mood, tearful, irritable, very anxious and had significant sleep disturbance in the form of initial and delayed insomnia. There was no clear precipitant for their symptoms.
They had been taking venlafaxine for approximately 1 year at a maximum tolerated dose of 225 mg daily.

[3] = tested on: subjects with DSM-IV major depression; experiment: Human study: 36 subjects with DSM-IV major depression, three randomised groups, response rates; type: in vivo; conditions: Hamilton score greater than 20 at entry; Vioxx 30 mg/day; compared among three groups incl. placebo
Experimental: Thirty six (36) subjects with DSM-IV major depression and Hamilton score greater than 20 were recruited. Subjects were randomly allocated into each of three groups • 1. SSRI plus Vioxx 30 mg/day • 2. Vioxx, 30 mg/day • 3. Placebo All subjects have base line Il-6, IL-1 and cortisol levels assayed using specific assays. Biochemical assays are repeated at the end of weeks 1, 3 and 6. […] Response to treatment was associated with a drop in cortisol levels and pro-inflammatory cytokines.

[4] = tested on: subjects treated with IFN-α; conditions: cited from earlier work; for IL-6 level compared with placebo: as early as four hours after a single dose
neutrophils = conditions: cited from earlier work
[5] = subjects treated with interferon alpha

C[C@@H](C(=O)O)c1cccc(C(=O)c2ccccc2)c1 [ketoprofen, R-ketoprofen]
potency of R-enantiomer versus S-enantiomer in down-regulating IL-6 levels (IL-6): significantly more potent

C[C@@H](C(=O)O)c1ccc(-c2ccccc2)c(F)c1 [R-flurbiprofen]
gastrointestinal mucosal damage [1]: does not cause gastrointestinal mucosal damage | inhibition of cyclooxygenase activity (cyclooxygenase): does not inhibit cyclooxygenase activity | potency of R-enantiomer versus S-enantiomer in down-regulating IL-6 levels (IL-6): significantly more potent

CC(C)Cc1ccc(C(C)C(=O)O)cc1 (stereo not drawn) [Ibruprofen]
HAMD ([2]; baseline HAMD 20, 400 mg three times daily added to venlafaxine 225 mg daily, day 14): 8 | day of reported symptomatic improvement ([2]; 400 mg three times daily added to venlafaxine): ≤ 8 days

CS(=O)(=O)c1ccc(C2=C(c3ccccc3)C(=O)OC2)cc1 [Rofecoxib]
HAMD score ([2]; baseline HAMD 22, Rofecoxib 50 mg daily added to venlafaxine 300 mg daily, after 1 week): 11 | time to improvement after commencing treatment ([2]; Rofecoxib 50 mg daily added to venlafaxine, subject's description): ≤ 5 days | clinical state at review ([2]; Rofecoxib added to venlafaxine, reviewed 2 weeks later): sustained | response rates [3]: greater than that observed for placebo

Fc1ccc([C@@H]2CCNC[C@H]2COc2ccc3c(c2)OCO3)cc1 [paroxetine]
impact in preventing depression [4, 5]: modest impact

COc1ccc(C(CN(C)C)C2(O)CCCCC2)cc1 (stereo not drawn) [venlafaxine]
clinical improvement ([2]; venlafaxine 300 mg daily alone, after 4 weeks on this dose): No clinical improvement

CN(C)CCCC1(c2ccc(F)cc2)OCc2cc(C#N)ccc21 (stereo not drawn) [citalopram]
clinical response ([2]; citalopram 20 mg daily alone, after 5 weeks): no response

O=C(O)c1cc(/N=N/c2ccc(S(=O)(=O)Nc3ccccn3)cc2)ccc1O [sulfasalazine]
induction of apoptosis in neutrophils (neutrophils): capable of inducing apoptosis

CC(C)Cc1ccc([C@@H](C)C(=O)O)cc1 [ibuprofen, R-ibuprofen]
potency of R-enantiomer versus S-enantiomer in down-regulating IL-6 levels (IL-6): significantly more potent

IFN-α
IL-6 level compared with placebo [4]: significantly increased | IL-6 level compared with placebo ([4]; listed as IFN-alpha): significantly increases | subjects in whom major depression is reported [4, 5]: up to 40%

Source: patent publication US20050037983A1, “Compositions and methods for the treatment of depression and other affective disorders” (priority 2003, published 2005)
